The text below walks through data of US20020165286A1, “Dermal anti-inflammatory composition” (priority 2000, published 2002).

Like-named read-outs stand apart in the source and are kept apart here.

For series [1] the following is noted: cited from earlier work.
The conditions of series [2]: cited from earlier work. This is another data set of the same source.
The conditions of series [3]: cited from earlier work. This is another data set of the same source.
The conditions of series [4]: cited from earlier work. The source holds these as a separate data set.
For series [5] the following is noted: cited from earlier work. The source holds these as a separate data set.
The test system of the next series is rhino mouse. Nature of the series: Rhino mouse study: comedolytic activity (number of utriculi, epidermal thickness). The class given is in vivo, rhino mice (RHJ/LeJ Rhino, hr^rh/hr^rh). Conditions: test substance dissolved in ethanol only. From the text:
The rhino mouse is an in vivo model for the study of hyperplastic and comedolytic potency of various drugs used in the treatment of acne. The rhino mouse has follicles on the skin. The orifices are distended with horny material and these structures resembles human microcomedones and are referred to as utriculi or pseudocomedones.
In the present study, the comedolytic activity and skin irritation potential of 3% w/v solutions of test substance (1) in different vehicles was studied in order to select a formulation suited for topical application. Selected commercial acne products were included in the study for the purpose of comparison.
105 female rhino mice (RHJ/LeJ Rhino, hr^rh/hr^rh) aged 6-9 weeks were obtained from M&B A/S, Denmark. The mice were placed in cages with free access to a commercial rodent diet (Altromin 1324) and tap water. […]
The mice were killed one day after the end of the treatment period and the dorsal skin was removed. […] These slices were evaluated under the microscope (Nikon LABOPHOT-2) for the number of epidermal utriculi and utriculi profile (×200) and the epidermal thickness (×400), and the mean value and standard deviation for each animal was estimated. […]

`O=C(O)CCCCCCCC(=O)O` [Azelaic acid]: in series [1] (topical administration), the Anti-inflam. result is “Maybe”. Further, in series [2] (topical administration), the Antibacterial result was “Yes”. For the same molecule, in series [3] (topical administration), the Comedolytic entry is reported as “Yes”. Also, in series [4] (topical administration), the Potential irritant entry is recorded as “Yes”. Besides, the Teratogenic result in series [5] (topical administration) was “No”.

With `O=C(OOC(=O)c1ccccc1)c1ccccc1` [Benzoyl peroxide], the Anti-inflam. entry in series [1] (topical administration) is recorded as “Maybe”. Moreover, in series [2] (topical administration), the Antibacterial result was “Yes”. For the same molecule, in series [3] (topical administration), the Comedolytic entry is recorded as “Somewhat”. For the same molecule, the Potential irritant entry in series [4] (topical administration) is reported as “Yes”.

As to `C[C@H]1c2cccc(O)c2C(O)=C2C(=O)[C@]3(O)C(O)=C(C(N)=O)C(=O)[C@@H](N(C)C)[C@@H]3[C@@H](O)[C@@H]21` [Doxycyclin], the Anti-inflam. entry in series [1] (systemic administration) is reported as “Yes”. Further, the Antibacterial entry in series [2] (systemic administration) is “Yes”. Also, the Comedolytic entry in series [3] (systemic administration) was “No”. Besides, the Potential irritant entry in series [4] (systemic administration) is recorded as “No”. In addition, the Teratogenic result in series [5] (systemic administration) is “Yes”.

Turning to `CC1=C(/C=C/C(C)=C/C=C/C(C)=C\C(=O)O)C(C)(C)CCC1` [Isotretinoin], the Anti-inflam. result in series [1] (systemic administration) is on record as “Yes”. Further, the Antibacterial entry in series [2] (systemic administration) is given as “Yes”. The Comedolytic result in series [3] (systemic administration) is listed as “Yes”. In addition, the Potential irritant entry in series [4] (systemic administration) is recorded as “Yes”. Moreover, the Teratogenic result in series [5] (systemic administration) is listed as “Yes”.

For `CN(C)c1ccc(O)c2c1C[C@H]1C[C@H]3[C@H](N(C)C)C(O)=C(C(N)=O)C(=O)[C@@]3(O)C(O)=C1C2=O` [Minocyclin], the Anti-inflam. result in series [1] (systemic administration) was “Yes”. Besides, the Antibacterial result in series [2] (systemic administration) is recorded as “Yes”. Moreover, the Comedolytic result in series [3] (systemic administration) is “No”. Moreover, in series [5] (systemic administration), the Teratogenic result is recorded as “Yes”.

Take `CN(C)[C@@H]1C(=O)C(C(N)=O)=C(O)[C@@]2(O)C(=O)C3=C(O)c4c(O)cccc4[C@@](C)(O)[C@H]3C[C@@H]12` [Tetracyclin]: in series [1] (systemic administration), the Anti-inflam. entry is “Yes”. Also, the Antibacterial entry in series [2] (systemic administration) is given as “Yes”. In series [3] (systemic administration), the Comedolytic entry is listed as “No”. Further, the Potential irritant result in series [4] (systemic administration) is “No”. The Teratogenic entry in series [5] (systemic administration) is on record as “Yes”.

For `CC1=C(/C=C/C(C)=C/C=C/C(C)=C/C(=O)O)C(C)(C)CCC1` [Tretinoin], in series [1] (topical administration), the Anti-inflam. result is reported as “No”. The Antibacterial result in series [2] (topical administration) was “No”. Moreover, the Comedolytic entry in series [3] (topical administration) is recorded as “Yes”. Also, the Potential irritant entry in series [4] (topical administration) is “Yes”. Further, the Teratogenic result in series [5] (topical administration) is “Maybe”.

Consider `Cc1cc(F)ccc1Nc1ccc(C(=O)c2ccccc2C)c(Cl)c1` [test substance (1), 2-chloro-4-(4-fluoro-2-methyl-phenylamino)-2′-methylbenzophenone], for which the “reduction in the number of utriculi” value in the series on rhino mouse is 51%.
